Patent US11613552B2, “Pharmaceutical agents, compositions, and methods relating thereto” (Alltech, Inc., priority 2017, dated 2023)

Assays:
Type in all cases: cell-based, mouse
[1] = test system: G6pc; assay: QRT-PCR of basal G6pc expression in AML-12 cells
Method: For RNA analysis of basal G6pc expression (without the presence of diabetic stimuli: 8-CPT/Dex), amplified AML-12 and HepG2 cells were cultured on 24-well plates (0.5-2×10^5 cells/well) overnight in 10% FBS ITS- and Dex-free DMEM/F12 media and 10% FBS EMEM media, respectively. These cells were rinsed twice with PBS to remove residual sera. Then, the PBS-washed HepG2 cells were treated without or with insulin or Compound #43 in serum-free EMEM media for 40 hr. In some experiments, the PBS-washed AML-12 cells were incubated without or with Compound #43 or other selenium compounds in serum-free DMEM/F12 media for 24 hours. In other experiments, amplified AML-12 cells were pretreated without or with Compound #43 (150 or 300 ppb) in 10% FBS but ITS/Dex-free DMEM/F12 media for 24 hr. After 24 hr treatment, AML-12 cells were washed twice with PBS (to remove any residual serum in the culture) and then treated with insulin, Compound #43 or both, in the serum-free DMEM/Dex media for 6 hr.
(§1) Total RNA from saline- or selenium compound-treated Lepr^db/db mice was isolated using a Qiagen RNAeasy RNA isolation kit according to the Manufacturer's protocol. Total RNA from cultured cells was isolated using Trizol (Invitrogen) according to the manufacturer's protocol, and then incubated with DNase I to remove any potential contaminating genomic DNA. RNA samples were subjected to real-time PCR (QRT-PCR) analysis using Applied-Bioscience's RT kit and predesigned Taqman probes (Invitrogen), as described previously (Lan et al EMBO J 2003). Data were normalized by Actin B (Actb) mRNA levels in each sample, and are presented as mean±SEM of 3-5 samples.

[2] = test system: G6pc; assay: QRT-PCR of 8-CPT/Dex-induced G6pc expression in AML-12 cells; details: for G6pc mRNA level normalized by non-8-CPT/Dex-treated group: with 8-CPT/Dex (8-CPT/Dex alone 41.5)
Method: For RNA analysis of the diabetic stimuli-induced G6pc expression, the AML-12 cells were pretreated without or with Compound #43 (150 or 300 ppb) in 10% FBS but ITS/Dex-free DMEM/F12 media for 24 hr. Then these cells were washed twice with PBS remove any residual sera, and incubated with Compound #43 (150 or 300 ppb) in the presence or absence of insulin (10 or 100 nM), or 0.1 mM 8-CPT (Sigma) and 0.5 μM Dex in serum-free plain DMEM/F12 media for another 6 hours.
as §1

[3] = test system: Pdk1/Akt/Foxo1; assay: Western blot of Pdk1/Akt/Foxo1 in AML-12 cells under simulated diabetic conditions (8-CPT/Dex); details: for pFoxo1 levels / total Foxo1 protein levels: 300 ppb Compound #43 or 10 nM insulin, 6 hr
Method: AML-12 cells were used to investigate whether Compound #43 can regulate Pdk1/Akt/Foxo1 signaling molecules in the liver cells following induction with diabetic stimuli. Amplified AML-12 cells were seeded on 6-well (1×10^6 cells/well) plates and cultured in 10% FBS but ITS/Dex-free DMEM/F12 media for 24 hr. Then these cells were washed twice with PBS to remove residual sera, and serum-starved in plain DMEM/F12 media overnight. These serum-starved AML12 cells were treated with the diabetic stimuli 8-CPT (0.1 mM) and Dex (0.5 μM) in combination, without (Control group) or with 10 nM insulin or Compound #43 (300 ppb) in serum-free plain DMEM/F12 media for 60 minutes, 90 minutes, and 6 hr, respectively.
After the above described treatments, cultured HepG2 and AML-12 cells were rinsed twice with ice-cold PBS and lysed in ice-cold RIPA buffer containing complete proteinase and phosphatase inhibitors (Thermo-Fisher Scientific, Waltham, Mass.) on ice for 30 min. Cell lysates were collected using a cell scraper and transfer pipette, and then centrifuged at 12000×g for 30 min at 4° C. to remove the DNA pellet and obtain the protein extract. Protein levels in the supernatant of these cell lysates were determined using the Pierce Micro-BCA protein assay kit (Thermo Scientific-Piece Biotechnology, Rockford, Ill.) according to the manufacturer's protocol.
One hundred micrograms of liver tissue proteins or five micrograms of total proteins from control- and compound(s)-treated HepG2 or AML-12 cells were subjected to SDS-PAGE gel separation and then transferred to PVDF membranes, as described previously (Reddy et al. 2008 Science). Membranes were blocked in a phosphate-buffered saline (PBS) containing 5% (w/v) of bovine serum albumin (Sigma, St. Louis, Mo.) and incubated with specific primary antibodies followed by the incubation with HRP-conjugated anti-mouse or anti-rabbit secondary antibodies (1:5000 dilution, Cell Signaling Inc.). All primary antibodies except Gapdh (Li-COR, Lincoln, Nebr.) were purchased from Cell Signaling Inc. Positive signals on the membrane blots were detected using the Amersham's enhanced chemiluminescence Western Blotting Prime Detection reagents (GE Healthcare Lifescience, Pittsburgh, Pa.). Images of these luminescence signals on the membrane blots were captured using the LI-COR Odyssey Fc Image system (Lincoln, Nebr.). The same membrane blot was stripped and re-blotted with another antibody as described in the GE WB ECL-prime-detection protocol (GE healthcare Lifescience, Pittsburgh, Pa.). Protein band densities in the Western blots were determined using the NIH ImageJ software and then normalized by Gapdh or Actb/ACTB level in each sample. Data are presented as mean±SEM of three samples per each group.

[4] = test system: AML-12 cells; assay: Glucose uptake assay in AML-12 cells
Method: Equal numbers of amplified AML-12 cells were seeded on 96 well plates (1.5×10^5/well) and cultured in 10% FBS but ITS/Dex-free DMEM/F12 media overnight. Then these cells were washed twice with PBS (to remove any potential residual sera), and serum-starved in plain DMEM/F12 media overnight. These serum-starved AML-12 cells were treated without (basal), with insulin (10 and 100 nM) or Compound #43 (150, 300 and 600 ppb) in glucose/phenol red-free DMEM media at 37° C. for 1.5 hr. After treatment, media was removed and cells were washed once with PBS and incubated with 1 mM 2-deoxyglucose (2DG) at room temperature for 30 min. The 2DG-treated cells were then subjected to glucose uptake measurement using Promega's Glucose Uptake-Glo Assay kit, according to the manufacturer's protocol. Luminescent signals were recorded using a Bio-Tek luminometer.

Compound	decrease of G6pc mRNA levels vs Control ([1]; 10 nM insulin, serum-free, 6 hr (FIG. 10C))	effect on 8-CPT/Dex-induced G6pc expression ([2]; 10 nM and 100 nM insulin, 6 hr)	phosphorylation of Pdk1, Akt and Foxo1 ([3]; 10 nM insulin, 60 and 90 minutes)	pFoxo1 levels [3]	total Foxo1 protein levels [3]	effect on glucose uptake ([4]; 10 nM insulin, 1.5 hr)	effect on glucose uptake ([4]; 100 nM insulin, 1.5 hr)	effect on G6pc expression ([1]; 150 and 300 ppb, 24 hr pretreatment then 6 hr retreatment (FIG. 10C))	decrease of G6pc expression vs Control ([1]; 300 ppb selenium (3.8 μM of each compound), serum-free, 24 hr (FIG. 10A)) [%]	decrease in G6pc mRNA levels vs either agent alone ([1]; pretreatment then co-treatment with 10 nM insulin, 6 hr (FIG. 10C))	reduction of 8-CPT/Dex-induced G6pc expression vs 8-CPT/Dex group ([2]; 150 and 300 ppb alone) [%]	effect on 8-CPT/Dex-induced G6pc expression ([2]; 150 or 300 ppb co-treated with 100 nM insulin)	G6pc mRNA level normalized by non-8-CPT/Dex-treated group ([2]; 150 ppb, Column #5 FIG. 11)	G6pc mRNA level normalized by non-8-CPT/Dex-treated group ([2]; 300 ppb, Column #8 FIG. 11)	phosphorylation of Pdk1, Akt and Foxo1 ([3]; 300 ppb, 60 minutes)	pFoxo1 protein levels ([3]; 300 ppb, 90 minutes)	pPdk1, pAkt, Akt and Foxo1 protein levels ([3]; 300 ppb, 90 minutes)	effect on glucose uptake ([4]; 150, 300 and 600 ppb, 1.5 hr (FIG. 17))	extent of increased glucose uptake ([4]; 600 ppb, 1.5 hr)	time to stimulate glucose uptake ([4]; serum-free)
insulin: insulin purchased from Sigma, positive control	about 65%	significantly decreased 8-CPT/Dex-induced G6pc expression	enhanced the phosphorylation of Pdk1, Akt and Foxo1	increased pFoxo1	slightly decreased total Foxo1 protein levels	did not enhance the glucose uptake	significant increase of glucose uptake	–	–	–	–	–	–	–	–	–	–	–	–	–
C[Se]C[C@H]1O[C@@H](n2cnc3c(N)ncnc32)C(OC(C)=O)C1OC(C)=O (stereo partly shown) [Compound #43, Adenosine, 5′-Se-methyl-5′-selino-, 2′,3′-diacetate]	–	–	–	significant increase in pFoxo1 levels	slight but significant decrease	–	–	significant decrease of G6pc expression with the decrease levels comparable to 10 nM insulin	~60	more pronounced	~68	almost completely abolished 8-CPT/Dex-induced G6pc expression	13	13.5	significantly induced the phosphorylation of Pdk1, Akt and Foxo1	significant increase in pFoxo1 protein levels	not significantly altered	significant increase of glucose uptake	comparable to 100 nM insulin	less than 1.5 hr
